Series [1] in a line: Magnetic properties by SQUID magnetometer. In kind it is physicochemical. The note with it: applied magnetic field H=20 kOe; Curie-Weiss fit. Here is the method:
Magnetic properties were analyzed using a magnetic susceptibility balance (MSB, Sherwood Scientific, Cambridge, UK) and a Quantum Design Superconducting Quantum Interference Device (SQUID) magnetometer (MPMS XL-7). The magnetic properties of transition metal MILs were further studied using a SQUID magnetometer to confirm their paramagnetic nature as well as if any magnetic transition occurs in the samples.
The magnetic properties of transition metal MILs were further studied using a SQUID magnetometer to confirm their paramagnetic nature as well as if any magnetic transition occurs in the samples.
The calculated μeff of 5.21μB for the [Ni(C6-DGE)6][Ni(hfacac)3]2 MIL (FIG. 12A) from SQUID matches quite well with the theoretical μtheo value (5.31μB, TABLE 1) and also with that obtained from MSB measurements (5.48μB).

For series [2] the following is noted: previously studied MILs, Table 2, cited from earlier work.
For series [3] the following is noted: SQUID magnetometer; previously studied MILs, Table 2; cited from earlier work.
For series [4] the following is noted: previously referenced MILs, cited from earlier work.
The conditions of series [5]: GC-FID; previously referenced MILs; cited from earlier work.
Where [6] appears, read: acetone, chloroform, dichloromethane, acetonitrile, methanol, ethanol, diethyl ether, ethyl acetate, isopropanol at 20% (w/v).
[7] abbreviates: hexane, heptane, benzene, toluene at 10% (w/v).

Like-named read-outs stand apart in the source and are kept apart here. Marks after values point to notes of the source that are not given here.

As for `CCCCCCOC(=O)COCC(=O)OCCCCCC.CCCCCCOC(=O)COCC(=O)OCCCCCC.CCCCCCOC(=O)COCC(=O)OCCCCCC.CCCCCCOC(=O)COCC(=O)OCCCCCC.CCCCCCOC(=O)COCC(=O)OCCCCCC.CCCCCCOC(=O)COCC(=O)OCCCCCC.O=C(C=C([O-])C(F)(F)F)C(F)(F)F.O=C(C=C([O-])C(F)(F)F)C(F)(F)F.O=C(C=C([O-])C(F)(F)F)C(F)(F)F.O=C(C=C([O-])C(F)(F)F)C(F)(F)F.O=C(C=C([O-])C(F)(F)F)C(F)(F)F.O=C(C=C([O-])C(F)(F)F)C(F)(F)F.[Ni+2].[Ni+2].[Ni+2]` [MIL 2], the “μeff from SQUID” value in series [1] was 5.21 μB.

For the compound `CCCCCCOC(=O)COCC(=O)OCCCCCC.CCCCCCOC(=O)COCC(=O)OCCCCCC.CCCCCCOC(=O)COCC(=O)OCCCCCC.CCCCCCOC(=O)COCC(=O)OCCCCCC.CCCCCCOC(=O)COCC(=O)OCCCCCC.CCCCCCOC(=O)COCC(=O)OCCCCCC.O=C(C=C([O-])C(F)(F)F)C(F)(F)F.O=C(C=C([O-])C(F)(F)F)C(F)(F)F.O=C(C=C([O-])C(F)(F)F)C(F)(F)F.O=C(C=C([O-])C(F)(F)F)C(F)(F)F.O=C(C=C([O-])C(F)(F)F)C(F)(F)F.O=C(C=C([O-])C(F)(F)F)C(F)(F)F.[Mn+2].[Mn+2].[Mn+2]` [MIL 3], in series [1], the “μeff from SQUID” value is on record as 8.31 μB.

Regarding `CCCCCCCCN(CCCCCCCC)C(=O)COCC(=O)N(CCCCCCCC)CCCCCCCC.CCCCCCCCN(CCCCCCCC)C(=O)COCC(=O)N(CCCCCCCC)CCCCCCCC.CCCCCCCCN(CCCCCCCC)C(=O)COCC(=O)N(CCCCCCCC)CCCCCCCC.O=C(C=C([O-])C(F)(F)F)C(F)(F)F.O=C(C=C([O-])C(F)(F)F)C(F)(F)F.O=C(C=C([O-])C(F)(F)F)C(F)(F)F.O=C(C=C([O-])C(F)(F)F)C(F)(F)F.O=C(C=C([O-])C(F)(F)F)C(F)(F)F.O=C(C=C([O-])C(F)(F)F)C(F)(F)F.O=C(C=C([O-])C(F)(F)F)C(F)(F)F.O=C(C=C([O-])C(F)(F)F)C(F)(F)F.O=C(C=C([O-])C(F)(F)F)C(F)(F)F.O=C(C=C([O-])C(F)(F)F)C(F)(F)F.O=C(C=C([O-])C(F)(F)F)C(F)(F)F.O=C(C=C([O-])C(F)(F)F)C(F)(F)F.[Ho+3].[Ho+3].[Ho+3].[Ho+3]` [[Ho(TODGA)3][Ho(hfacac)4]3], the Viscosity in series [2] (reported at 19.9° C.) is recorded as 10,530^e. In addition, the Effective magnetic moment in series [3] is 20.86^f. In addition, the Solubility entry was “S^b (soluble in acetone, chloroform, dichloromethane, acetonitrile, methanol, ethanol, diethyl ether, ethyl acetate, and isopropanol at 20% (w/v).)” in series [4] (setting [6]); “S^a (soluble in hexane, heptane, benzene, and toluene at 10% (w/v).)” in series [4] (setting [7]); “S^c (soluble in hexane, heptane, benzene, and toluene at 20% (w/v).)” in series [4] (hexane, heptane, benzene, toluene at 20% (w/v)); “S^f (insoluble in water at 0.01% (w/v).)” in series [4] (water at 0.01% (w/v)). The “Onset of MIL volatilization (° C.)^1” value in series [5] was 192 °C.

`CCCCCCCCN(CCCCCCCC)C(=O)COCC(=O)N(CCCCCCCC)CCCCCCCC.CCCCCCCCN(CCCCCCCC)C(=O)COCC(=O)N(CCCCCCCC)CCCCCCCC.O=C(C=C([O-])C(F)(F)F)C(F)(F)F.O=C(C=C([O-])C(F)(F)F)C(F)(F)F.O=C(C=C([O-])C(F)(F)F)C(F)(F)F.O=C(C=C([O-])C(F)(F)F)C(F)(F)F.O=C(C=C([O-])C(F)(F)F)C(F)(F)F.O=C(C=C([O-])C(F)(F)F)C(F)(F)F.[Ni+2].[Ni+2].[Ni+2]` [[Ni(TODGA)2][Ni(hfacac)3]2]: the Viscosity in series [2] (reported at 19.9° C.) was 33,830^e. For the same compound, the Effective magnetic moment in series [3] is 11.79^f. Further, the Solubility entry in series [4] (setting [6]) was “S^b (soluble in acetone, chloroform, dichloromethane, acetonitrile, methanol, ethanol, diethyl ether, ethyl acetate, and isopropanol at 20% (w/v).)”; in series [4] (setting [7]), “S^a (soluble in hexane, heptane, benzene, and toluene at 10% (w/v).)”; in series [4] (water at 0.01% (w/v)), “S^f (insoluble in water at 0.01% (w/v).)”. Further, the “Onset of MIL volatilization (° C.)^1” value in series [5] is 235 °C.

For the compound `CCCCCCCCCCCCCC[P+](CCCCCC)(CCCCCC)CCCCCC.O=C(C=C([O-])C(F)(F)F)C(F)(F)F.O=C(C=C([O-])C(F)(F)F)C(F)(F)F.O=C(C=C([O-])C(F)(F)F)C(F)(F)F.[Co+2]` [[P66614][Co(hfacac)3]], the Viscosity in series [2] (reported at 23.7° C.) is on record as 575.8^c. Further, the Effective magnetic moment in series [3] was 4.30^f. The Solubility result in series [4] (setting [6]) was “S^b (soluble in acetone, chloroform, dichloromethane, acetonitrile, methanol, ethanol, diethyl ether, ethyl acetate, and isopropanol at 20% (w/v).)”; in series [4] (setting [7]), “S^a (soluble in hexane, heptane, benzene, and toluene at 10% (w/v).)”; in series [4] (water at 0.01% (w/v)) it was “S^f (insoluble in water at 0.01% (w/v).)”. In addition, the “Onset of MIL volatilization (° C.)^1” value in series [5] was 130 °C.

On to `CCCCCCCCCCCCCC[P+](CCCCCC)(CCCCCC)CCCCCC.O=C(C=C([O-])C(F)(F)F)C(F)(F)F.O=C(C=C([O-])C(F)(F)F)C(F)(F)F.O=C(C=C([O-])C(F)(F)F)C(F)(F)F.[Mn+2]` [[P66614][Mn(hfacac)3]], for which, in series [2] (reported at 23.7° C.), the Viscosity was 401.8^c. In addition, the Effective magnetic moment in series [3] is 5.80^f. In addition, the Solubility result in series [4] (setting [6]) is “S^b (soluble in acetone, chloroform, dichloromethane, acetonitrile, methanol, ethanol, diethyl ether, ethyl acetate, and isopropanol at 20% (w/v).)”; in series [4] (setting [7]), “S^a (soluble in hexane, heptane, benzene, and toluene at 10% (w/v).)”; in series [4] (water at 0.01% (w/v)), “S^f (insoluble in water at 0.01% (w/v).)”. In series [5], the “Onset of MIL volatilization (° C.)^1” value is 155 °C.

Regarding `CCCCCCCCCCCCCC[P+](CCCCCC)(CCCCCC)CCCCCC.O=C(C=C([O-])C(F)(F)F)C(F)(F)F.O=C(C=C([O-])C(F)(F)F)C(F)(F)F.O=C(C=C([O-])C(F)(F)F)C(F)(F)F.[Ni+2]` [[P66614][Ni(hfacac)3]], the Viscosity in series [2] (reported at 23.7° C.) was 927.9^c. The Effective magnetic moment in series [3] is recorded as 2.80^f. The Solubility entry is “S^b (soluble in acetone, chloroform, dichloromethane, acetonitrile, methanol, ethanol, diethyl ether, ethyl acetate, and isopropanol at 20% (w/v).)” in series [4] (setting [6]); “S^a (soluble in hexane, heptane, benzene, and toluene at 10% (w/v).)” in series [4] (setting [7]); “S^f (insoluble in water at 0.01% (w/v).)” in series [4] (water at 0.01% (w/v)). Also, in series [5], the “Onset of MIL volatilization (° C.)^1” value is 225 °C.
